In ChEMBL document CHEMBL1141395, “2-(S)-phenethylaminothiazolones as potent, orally efficacious inhibitors of 11beta-hydroxysteriod dehydrogenase type 1” (J Med Chem, 2007):

Assays:
Glucocorticoid receptor = biological target: T1, Glucocorticoid receptor (Homo sapiens, UniProt P04150); experiment: Inhibition of glucocorticoid receptor
T1 sequence (P04150 whole entry): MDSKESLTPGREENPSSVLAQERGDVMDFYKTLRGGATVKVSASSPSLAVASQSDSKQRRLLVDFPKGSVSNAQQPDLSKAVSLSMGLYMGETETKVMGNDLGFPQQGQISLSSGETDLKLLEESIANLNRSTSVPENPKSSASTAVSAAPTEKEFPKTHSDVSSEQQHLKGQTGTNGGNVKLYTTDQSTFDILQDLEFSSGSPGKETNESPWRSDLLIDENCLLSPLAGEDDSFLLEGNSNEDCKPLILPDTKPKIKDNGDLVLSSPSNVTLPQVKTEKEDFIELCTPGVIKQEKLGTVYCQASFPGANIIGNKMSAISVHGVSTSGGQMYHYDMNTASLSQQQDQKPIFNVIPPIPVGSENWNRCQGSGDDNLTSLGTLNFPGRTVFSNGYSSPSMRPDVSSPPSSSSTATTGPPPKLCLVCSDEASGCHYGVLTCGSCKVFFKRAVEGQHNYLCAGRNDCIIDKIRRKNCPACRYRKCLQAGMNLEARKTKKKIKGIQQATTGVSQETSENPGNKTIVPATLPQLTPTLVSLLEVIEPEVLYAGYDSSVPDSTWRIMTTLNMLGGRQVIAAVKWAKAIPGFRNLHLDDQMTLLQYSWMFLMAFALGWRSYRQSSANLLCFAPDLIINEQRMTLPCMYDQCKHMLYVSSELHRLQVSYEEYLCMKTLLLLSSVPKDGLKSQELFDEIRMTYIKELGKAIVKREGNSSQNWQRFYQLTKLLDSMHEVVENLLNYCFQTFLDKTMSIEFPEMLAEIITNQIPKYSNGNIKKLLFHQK

[1] = Drug level in adipose in C57/B16 mouse at 30 mg/kg, po after 2 hrs; assay type: ADME, organism-based; set-up: dose 30 mg/kg, route oral; details: read-out: Drug uptake
[2] = Clearance in Sprague-Dawley rat at 2 mg/kg, iv; assay type: ADME, organism-based; set-up: dose 2 mg/kg, route intravenous; details: in vivo
[3] = Drug level in C57/B16 mouse plasma at 30 mg/kg, po after 2 hrs; assay type: ADME, organism-based; set-up: dose 30 mg/kg, route oral
[4] = biological target: T2, 11-beta-hydroxysteroid dehydrogenase 1 (Homo sapiens, UniProt P28845)
Description: Inhibition of human 11beta-HSD1 over expressed in CHO cells by whole cell assay

[5] = Drug level in C57/B16 mouse plasma at 30 mg/kg, po after 6 hrs; assay type: ADME, organism-based; set-up: dose 30 mg/kg, route oral
[6] = Drug level in adipose in C57/B16 mouse at 30 mg/kg, po after 6 hrs; assay type: ADME, organism-based; set-up: dose 30 mg/kg, route oral; details: read-out: Drug uptake
[7] = biological target: 11-beta-hydroxysteroid dehydrogenase 1 (Mus musculus) (UniProt P50172); experiment: Reduction of 11beta-HSD1 activity in C57/B16 mouse at 30 mg/kg, po after 2 hrs; assay type: organism-based; set-up: dose 30 mg/kg; scale not given: the % may be the effect or the level left
[8] = Cmax in Sprague-Dawley rat at 10 mg/kg, po; assay type: ADME, organism-based; set-up: dose 10 mg/kg, route oral; details: in vivo
[9] = biological target: 11-beta-hydroxysteroid dehydrogenase type 2 (Homo sapiens, UniProt P80365); experiment: Inhibition of human 11beta-HSD2
[10] = Volume of distribution in Sprague-Dawley rat at 2 mg/kg, iv; assay type: ADME, organism-based; set-up: dose 2 mg/kg, route intravenous; details: in vivo, read-out: Vss
[11] = biological target: T2, 11-beta-hydroxysteroid dehydrogenase 1; remark: listed apart in the source
Description: Displacement of [3H]cortisone from human recombinant 11beta-HSD1 by SPA

[12] = biological target: 11-beta-hydroxysteroid dehydrogenase 1 (Mus musculus, UniProt P50172); experiment: Inhibition of murine 11beta-HSD1
[13] = biological target: 11-beta-hydroxysteroid dehydrogenase 1 (Mus musculus) (UniProt P50172); experiment: Reduction of 11beta-HSD1 activity in C57/B16 mouse at 30 mg/kg, po after 6 hrs; assay type: organism-based; set-up: dose 30 mg/kg; scale not given: the % may be the effect or the level left
[14] = Oral bioavailability in Sprague-Dawley rat at 10 mg/kg, po; assay type: ADME, organism-based; details: in vivo

T2 sequence (P28845 whole entry): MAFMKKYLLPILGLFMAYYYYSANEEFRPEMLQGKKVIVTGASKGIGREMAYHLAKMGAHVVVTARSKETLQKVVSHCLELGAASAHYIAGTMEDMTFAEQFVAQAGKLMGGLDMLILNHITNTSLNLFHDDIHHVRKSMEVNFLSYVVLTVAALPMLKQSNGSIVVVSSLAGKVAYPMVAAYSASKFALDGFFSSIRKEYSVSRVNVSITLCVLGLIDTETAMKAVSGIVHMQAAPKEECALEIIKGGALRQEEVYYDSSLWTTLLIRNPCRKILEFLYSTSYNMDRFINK
Sequence of 11-beta-hydroxysteroid dehydrogenase 1 (Mus musculus) (P50172 whole entry, looked up): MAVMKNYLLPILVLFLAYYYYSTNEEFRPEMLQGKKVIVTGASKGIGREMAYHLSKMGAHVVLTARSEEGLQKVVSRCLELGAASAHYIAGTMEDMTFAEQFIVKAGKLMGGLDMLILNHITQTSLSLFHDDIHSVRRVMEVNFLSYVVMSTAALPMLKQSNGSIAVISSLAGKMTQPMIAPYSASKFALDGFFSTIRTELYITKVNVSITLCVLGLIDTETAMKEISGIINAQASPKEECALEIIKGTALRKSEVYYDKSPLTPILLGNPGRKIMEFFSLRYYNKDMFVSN
Sequence of 11-beta-hydroxysteroid dehydrogenase 1 (Mus musculus, UniProt P50172) (P50172 whole entry): as the sequence (P50172 whole entry, looked up) above
Sequence of 11-beta-hydroxysteroid dehydrogenase type 2 (P80365 whole entry, looked up): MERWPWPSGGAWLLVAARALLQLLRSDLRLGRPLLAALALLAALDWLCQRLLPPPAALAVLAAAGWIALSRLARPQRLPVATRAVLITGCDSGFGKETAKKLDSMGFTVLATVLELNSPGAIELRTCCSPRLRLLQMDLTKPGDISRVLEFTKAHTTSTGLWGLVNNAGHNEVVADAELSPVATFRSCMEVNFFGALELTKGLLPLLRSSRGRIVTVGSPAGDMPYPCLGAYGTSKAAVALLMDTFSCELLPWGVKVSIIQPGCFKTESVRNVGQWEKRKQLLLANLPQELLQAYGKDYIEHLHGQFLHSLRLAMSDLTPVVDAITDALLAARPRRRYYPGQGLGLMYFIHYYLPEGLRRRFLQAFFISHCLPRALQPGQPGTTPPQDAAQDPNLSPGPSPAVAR

| SMILES | IC50 (Glucocorticoid receptor) [µM] | concentration at 2 h [1] [µM] | clearance [2] [mL/min/kg] | concentration at 2 h [3] [µM] | IC50 [4] [nM] | concentration at 6 h [5] [µM] | concentration at 6 h [6] [µM] | Activity [7] [%] | Cmax [8] [ng/mL] | IC50 [9] [µM] | Vd [10] [L/kg] | Ki [11] [nM] | Ki [12] [nM] | Activity [13] [%] | bioavailability [14] [%] |
| --- | --- | --- | --- | --- | --- | --- | --- | --- | --- | --- | --- | --- | --- | --- | --- |
| C[C@H](NC1=NC(=O)[C@@](C)(C(F)(F)F)S1)c1ccccc1F | > 50 | 234 | 3.13 | 55 | 33 | 35 | 113 | 88 | 4630 | > 10 | 1.2 | 22 | 130 | 91 | 75 |
| C[C@H](NC1=NC(=O)C(C)(C(C)(C)F)S1)c1ccccc1F (some centres not stated) | – | – | 14.8 | – | – | – | – | – | 1080 | – | 1.66 | – | – | – | 47 |
| C[C@H](NC1=NC(=O)C(C)(C(F)(F)F)S1)c1ccccc1F (some centres not stated) | – | – | 8.35 | – | 56 | – | – | – | 1040 | – | 2.98 | 20 | – | – | 55 |
| C[C@H](NC1=NC(=O)[C@](C)(C(F)(F)F)S1)c1ccccc1F | – | – | 9.6 | – | 96 | – | – | – | 1230 | – | 1.66 | 48 | – | – | 50 |

The remaining lines, values ahead:

| IC50 (Glucocorticoid receptor) [µM] | concentration at 2 h [1] [µM] | clearance [2] [mL/min/kg] | concentration at 2 h [3] [µM] | IC50 [4] [nM] | concentration at 6 h [5] [µM] | concentration at 6 h [6] [µM] | Activity [7] [%] | Cmax [8] [ng/mL] | IC50 [9] [µM] | Vd [10] [L/kg] | Ki [11] [nM] | Ki [12] [nM] | Activity [13] [%] | bioavailability [14] [%] | SMILES |
| --- | --- | --- | --- | --- | --- | --- | --- | --- | --- | --- | --- | --- | --- | --- | --- |
| – | – | – | – | 53 | – | – | – | – | – | – | 65 | – | – | – | CC(C)C1(C)SC(NCc2ccccc2)=NC1=O (configuration not stated) |
| – | – | 42.8 | – | – | – | – | – | 176 | – | 5.73 | – | – | – | 20 | CC(C)[C@]1(C)SC(N[C@@H](C)c2ccccc2F)=NC1=O |
